Data: article PMC8682774 (2021)

Legend:
[1] = test system: 22AG (DNA, G4) AGGGTTAGGGTTAGGGTTAGGG; assay: G4-FID; details: 100 mM KCl, 10 mM lithium cacodylate pH 7.3, thiazole orange 0.5 µM displaced
[2] = test system: 21CTA (DNA, G4) GGGCTAGGGCTAGGGCTAGGG; assay: G4-FID; details: 100 mM KCl, 10 mM lithium cacodylate pH 7.3, thiazole orange 0.5 µM displaced
[3] = test system: c-Myc22 (G14T-G23T) (DNA, G4) TGAGGGTGGGTAGGGTGGGTAA; assay: G4-FID; details: 100 mM KCl, 10 mM lithium cacodylate pH 7.3, thiazole orange 0.5 µM displaced
[4] = test system: cKit2 (DNA, G4) GGGCGGGCGCGAGGGAGGGG; assay: G4-FID; details: 100 mM KCl, 10 mM lithium cacodylate pH 7.3, thiazole orange 0.5 µM displaced
[5] = test system: CEB25wt (DNA, G4) AAGGGTGGGTGTAAGTGTGGGTGGGT; assay: G4-FID; details: 100 mM KCl, 10 mM lithium cacodylate pH 7.3, thiazole orange 0.5 µM displaced
[6] = test system: CEB25L111T (DNA, G4) AAGGGTGGGTGGGTGGGT; assay: G4-FID; details: 100 mM KCl, 10 mM lithium cacodylate pH 7.3, thiazole orange 0.5 µM displaced
[7] = test system: TERRA (RNA, G4) AGGGUUAGGGUUAGGGUUAGGG; assay: G4-FID; details: 100 mM KCl, 10 mM lithium cacodylate pH 7.3, thiazole orange 0.5 µM displaced
[8] = test system: NRAS (RNA, G4) GGGAGGGGCGGGUCUGGG; assay: G4-FID; details: 100 mM KCl, 10 mM lithium cacodylate pH 7.3, thiazole orange 0.5 µM displaced
[9] = test system: Biot-hTelo (DNA, G4) GGTTAGGGTTAGGGTTAGGGTTAGGGTTAGG; assay: adapted ELISA, anti-BrdU antibody; details: 100 mM KCl; 10 mM Tris-HCl pH 7.4; 250 nM ligand, oligonucleotide varied; apparent
[10] = test system: Biot-cMyc (DNA, G4) TGAGGGTGGGTAGGGTGGGTAA; assay: adapted ELISA, anti-BrdU antibody; details: 100 mM KCl; 10 mM Tris-HCl pH 7.4; 250 nM ligand, oligonucleotide varied; apparent
[11] = test system: Biot-TERRA (RNA, G4) UUAGGGUUAGGGUUAGGGUUAGGG; assay: adapted ELISA, anti-BrdU antibody; details: 100 mM KCl; 10 mM Tris-HCl pH 7.4; 250 nM ligand, oligonucleotide varied; apparent
[12] = test system: F21T (DNA, G4) GGGTTAGGGTTAGGGTTAGGG; assay: FRET melting; details: 10 mM KCl, 90 mM LiCl; 10 mM lithium cacodylate pH 7.2; 0.2 µM G4; 1 µM ligand; no competitor

DC50 ([1]; 0.25 µM G4) | DC50 ([2]; 0.25 µM G4) | DC50 ([3]; 0.25 µM G4) | DC50 ([4]; 0.25 µM G4) | DC50 ([5]; 0.25 µM G4) | DC50 ([6]; 0.25 µM G4) | DC50 ([7]; 0.25 µM G4) | DC50 ([8]; 0.25 µM G4) | Kd [9] | Kd [10] | Kd [11] | binding [12] | DC50 ([1]; 0.25 µM DNA) | DC50 ([2]; 0.25 µM DNA) | DC50 ([3]; 0.25 µM DNA) | DC50 ([4]; 0.25 µM DNA) | DC50 ([5]; 0.25 µM DNA) | DC50 ([6]; 0.25 µM DNA) | DC50 ([7]; 0.25 µM RNA, decimal comma) | DC50 ([8]; 0.25 µM RNA, decimal comma) | SMILES
800 nM | 1100 nM | 520 nM | 380 nM | 760 nM | 480 nM | 0.42 µM | 0.32 µM | 9.6 ± 1.3 nM | 3.5 ± 0.9 nM | 29.6 ± 7.8 nM |  |  |  |  |  |  |  |  |  | C[n+]1cc(NC(=O)c2cc(NCCCCNC(=O)CCCc3cn(CO[C@H]4C[C@H](n5cc(Br)c(=O)[nH]c5=O)O[C@@H]4CO)nn3)cc(C(=O)Nc3cc4ccccc4[n+](C)c3)n2)cc2ccccc21
370 nM | 300 nM | 310 nM | 200 nM | 400 nM | 230 nM | 0.31 µM | 0.21 µM |  |  |  | yes |  |  |  |  |  |  |  |  | C#CCCCC(=O)NCCCCNc1cc(C(=O)Nc2cc3ccccc3[n+](C)c2)nc(C(=O)Nc2cc3ccccc3[n+](C)c2)c1
 |  |  |  |  |  |  |  |  |  |  |  | 340 nM | 180 nM | 150 nM | 180 nM | 290 nM | 260 nM | 0,25 µM | 0,20 µM | C[n+]1cc(NC(=O)c2cccc(C(=O)Nc3cc4ccccc4[n+](C)c3)n2)cc2ccccc21
